Source: PubChem BioAssay (NCI)
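GI50: concentration for 50% inhibition of growth. Definition used: TGI = concentration required for complete inhibition of growth.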

Key:
Test in all cases: NCI anticancer screen, dose series, 384-well format
[1] = system: 786-0 renal
[2] = system: A498 renal
[3] = system: A549 NSCLC
[4] = system: ACHN renal
[5] = system: BT-549 breast
[6] = system: CAKI-1 renal
[7] = system: COLO 205 colon
[8] = system: DU-145 prostate
[9] = system: EKVX NSCLC
[10] = system: HCC-2998 colon
[11] = system: HCT-116 colon
[12] = system: HCT-15 colon
[13] = system: HL-60(TB) leukemia
[14] = system: HOP-62 NSCLC
[15] = system: HOP-92 NSCLC
[16] = system: HS 578T breast
[17] = system: HT29 colon
[18] = system: IGROV1 ovarian
[19] = system: KM12 colon
[20] = system: LOX IMVI melanoma
[21] = system: M14 melanoma
[22] = system: MALME-3M melanoma
[23] = system: MCF7 breast
[24] = system: MDA-MB-231 breast
[25] = system: MDA-MB-468 breast
[26] = system: MOLT-4 leukemia
[27] = system: NCI-H322M lung
[28] = system: NCI-H522 lung
[29] = system: OVCAR-3 ovarian
[30] = system: OVCAR-5 ovarian
[31] = system: RPMI-8226 leukemia
[32] = system: RXF 393 renal
[33] = system: SF-268 CNS
[34] = system: SF-295 CNS
[35] = system: SF-539 CNS
[36] = system: SK-MEL-28 melanoma
[37] = system: SK-MEL-5 melanoma
[38] = system: SN12C renal
[39] = system: SR leukemia
[40] = system: T-47D breast
[41] = system: TK-10 renal
[42] = system: UACC-257 melanoma
[43] = system: UACC-62 melanoma
[44] = system: UO-31 renal

CCOc1cc2ncc(C#N)c(Nc3ccc(OCc4ccccn4)c(Cl)c3)c2cc1NC(=O)/C=C/CN(C)C
GI50 [1]: 251 nM | TGI [1]: 1230 nM | GI50 [2]: 89.6 nM | TGI [2]: 1220 nM | GI50 [3]: 312 nM | TGI [3]: 1740 nM | GI50 [4]: 61.1 nM | TGI [4]: 1220 nM | GI50 [5]: 396 nM | TGI [5]: 1520 nM | GI50 [6]: 98.7 nM | TGI [6]: 759 nM | GI50 [7]: 3670 nM | TGI [7]: > 100000 nM | GI50 [8]: 143 nM | TGI [8]: 1420 nM | GI50 [9]: 41.8 nM | TGI [9]: 1240 nM | GI50 [10]: 1260 nM | TGI [10]: 2520 nM | GI50 [11]: 473 nM | TGI [11]: 1670 nM | GI50 [12]: 349 nM | TGI [12]: 1500 nM | GI50 [13]: 197 nM | TGI [13]: 639 nM | GI50 [14]: 1130 nM | TGI [14]: 2350 nM | GI50 [15]: 351 nM | TGI [15]: 1620 nM | GI50 [16]: 220 nM | TGI [16]: 848 nM | GI50 [17]: 1230 nM | TGI [17]: 2490 nM | GI50 [18]: 25.9 nM | TGI [18]: 320 nM | GI50 [19]: 1200 nM | TGI [19]: 2450 nM | GI50 [20]: 969 nM | TGI [20]: 2150 nM | GI50 [21]: 276 nM | TGI [21]: 1180 nM | GI50 [22]: 188 nM | TGI [22]: 808 nM | GI50 [23]: 881 nM | TGI [23]: 2100 nM | GI50 [24]: 754 nM | TGI [24]: 2000 nM | GI50 [25]: < 10 nM | TGI [25]: 29 nM | GI50 [26]: 207 nM | TGI [26]: 511 nM | GI50 [27]: 14.9 nM | TGI [27]: 53 nM | GI50 [28]: < 10 nM | TGI [28]: 63.3 nM | GI50 [29]: 148 nM | TGI [29]: > 100000 nM | GI50 [30]: 864 nM | TGI [30]: > 100000 nM | GI50 [31]: 242 nM | TGI [31]: 515 nM | GI50 [32]: 143 nM | TGI [32]: 598 nM | GI50 [33]: 311 nM | TGI [33]: > 100000 nM | GI50 [34]: > 100000 nM | TGI [34]: > 100000 nM | GI50 [35]: 2170 nM | TGI [35]: > 100000 nM | GI50 [36]: > 100000 nM | TGI [36]: > 100000 nM | GI50 [37]: 183 nM | TGI [37]: 474 nM | GI50 [38]: 140 nM | TGI [38]: > 100000 nM | GI50 [39]: 530 nM | TGI [39]: 876 nM | GI50 [40]: < 10 nM | TGI [40]: > 100000 nM | GI50 [41]: 71 nM | TGI [41]: > 100000 nM | GI50 [42]: 2150 nM | TGI [42]: > 100000 nM | GI50 [43]: 405 nM | TGI [43]: > 100000 nM | GI50 [44]: 267 nM | TGI [44]: > 100000 nM
